Assay results taken from ChEMBL document CHEMBL5329217, “Hesperidin Methyl Chalcone reduces extracellular Aβ(25-35) peptide aggregation and fibrillation and also protects Neuro 2a cells from Aβ(25-35) induced neuronal dysfunction” (Bioorg Med Chem, 2023).
In brackets after ≈: the same amount, converted by molar mass. Activity calls are given as the source filed them. The calls are words filed in the database; no cut-off is given here.

Key:
[1] = target: Acetylcholinesterase (Electrophorus electricus) (UniProt O42275); test: Inhibition of electric eel AchE using acetylthiocholine iodide as substrate at 20 to 100 ug/ml by Ellman's method relative to control; conditions: dose 20-100 µg/ml
Sequence of Acetylcholinesterase (Electrophorus electricus) (O42275 24-633 limits assumed): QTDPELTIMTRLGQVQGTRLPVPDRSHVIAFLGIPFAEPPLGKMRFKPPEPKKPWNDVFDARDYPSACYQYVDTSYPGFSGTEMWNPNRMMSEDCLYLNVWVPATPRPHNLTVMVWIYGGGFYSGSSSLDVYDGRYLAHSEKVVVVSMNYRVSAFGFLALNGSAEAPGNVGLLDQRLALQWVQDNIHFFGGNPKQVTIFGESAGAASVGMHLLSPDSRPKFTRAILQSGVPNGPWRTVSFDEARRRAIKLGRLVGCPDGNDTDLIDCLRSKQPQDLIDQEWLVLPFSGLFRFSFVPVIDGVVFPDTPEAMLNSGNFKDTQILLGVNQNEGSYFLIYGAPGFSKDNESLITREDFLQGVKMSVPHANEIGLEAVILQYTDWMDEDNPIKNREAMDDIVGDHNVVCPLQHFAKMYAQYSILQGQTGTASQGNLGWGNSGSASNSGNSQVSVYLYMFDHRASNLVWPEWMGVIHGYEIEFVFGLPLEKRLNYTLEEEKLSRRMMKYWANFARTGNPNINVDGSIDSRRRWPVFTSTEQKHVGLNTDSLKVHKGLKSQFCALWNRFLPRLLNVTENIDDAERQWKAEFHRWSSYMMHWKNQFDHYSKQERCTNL

[2] = target: Acetylcholinesterase (Electrophorus electricus) (UniProt O42275); test: Inhibition of electric eel AchE using acetylthiocholine iodide as substrate at 100 ug/ml by Ellman's method relative to control; conditions: dose 100.0 µg/ml
[3] = Antioxidant activity assessed as free radical scavenging activity at 100 ug/ml by DPPH assay relative to control; format: functional; conditions: dose 100.0 µg/ml
[4] = Toxicity in Artemia salina assessed as mortality rate at 5 ug/ml measured after 24 hrs relative to control; format: organism-based; conditions: in vivo, at 5 µg/mL
[5] = Toxicity in Artemia salina assessed as mortality rate at 25 ug/ml measured after 24 hrs relative to control; format: organism-based; conditions: in vivo, at 25 µg/mL
[6] = Toxicity in Artemia salina assessed as mortality rate at 50 ug/ml measured after 24 hrs relative to control; format: organism-based; conditions: in vivo, at 50 µg/mL
[7] = Toxicity in Artemia salina assessed as mortality rate at 75 ug/ml measured after 24 hrs relative to control; format: organism-based; conditions: in vivo, at 75 µg/mL
[8] = Toxicity in Artemia salina assessed as mortality rate at 100 ug/ml measured after 24 hrs relative to control; format: organism-based; conditions: in vivo, at 100 µg/mL
[9] = Toxicity in Artemia salina assessed as lethal dose; format: organism-based; conditions: in vivo
[10] = system: Artemia salina; test: Toxicity in Artemia salina assessed as induction of morphological changes by measuring variation in the mandibles at 5 to 100 ug/ml treated for 24 hrs by phase contrast light microscopy; format: organism-based; conditions: in vivo, dose 5-100 µg/ml
[11] = system: Artemia salina; test: Toxicity in Artemia salina assessed as induction of morphological changes by measuring improper development at 5 to 100 ug/ml treated for 24 hrs by phase contrast light microscopy; format: organism-based; conditions: in vivo, dose 5-100 µg/ml
[12] = system: Artemia salina; test: Toxicity in Artemia salina assessed as induction of morphological changes by measuring improper antennae swimming setae at 5 to 100 ug/ml treated for 24 hrs by phase contrast light microscopy; format: organism-based; conditions: in vivo, dose 5-100 µg/ml
[13] = system: Artemia salina; test: Toxicity in Artemia salina assessed as decrease in total length of the shrimp at 5 to 100 ug/ml measured after 24 hrs by phase contrast light microscopy; format: organism-based; conditions: in vivo, dose 5-100 µg/ml
[14] = target: Amyloid-beta precursor protein (Homo sapiens) (UniProt P05067); test: Inhibition of amyloid beta (25 to 35) (unknown origin) aggregation assessed as fluorescence intensity at 50 ug/ml incubated for 24 hrs by ThT-based fluorescence analysis (reference value: 22.15 +/-1.41 AU); conditions: dose 50.0 µg/ml
Sequence of Amyloid-beta precursor protein (Homo sapiens) (P05067 whole entry): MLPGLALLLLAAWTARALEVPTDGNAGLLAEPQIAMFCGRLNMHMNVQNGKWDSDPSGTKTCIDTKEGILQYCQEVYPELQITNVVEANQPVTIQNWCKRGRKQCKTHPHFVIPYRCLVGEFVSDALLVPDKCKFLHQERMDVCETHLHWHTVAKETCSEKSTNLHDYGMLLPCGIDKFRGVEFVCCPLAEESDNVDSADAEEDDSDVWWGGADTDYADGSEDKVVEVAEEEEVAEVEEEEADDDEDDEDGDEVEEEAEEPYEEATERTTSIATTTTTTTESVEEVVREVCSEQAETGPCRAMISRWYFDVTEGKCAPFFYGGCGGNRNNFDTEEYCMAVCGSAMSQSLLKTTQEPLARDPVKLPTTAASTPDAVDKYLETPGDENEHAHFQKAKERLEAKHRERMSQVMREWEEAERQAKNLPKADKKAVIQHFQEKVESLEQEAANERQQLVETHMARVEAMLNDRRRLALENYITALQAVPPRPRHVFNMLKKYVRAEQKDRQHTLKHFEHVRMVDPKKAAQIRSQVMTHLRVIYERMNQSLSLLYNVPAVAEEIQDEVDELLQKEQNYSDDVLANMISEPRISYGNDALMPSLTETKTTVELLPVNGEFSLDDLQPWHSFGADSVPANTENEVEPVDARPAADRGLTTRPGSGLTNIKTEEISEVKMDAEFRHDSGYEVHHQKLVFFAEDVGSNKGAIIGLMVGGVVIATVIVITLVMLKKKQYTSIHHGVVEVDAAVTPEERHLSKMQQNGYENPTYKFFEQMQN

[15] = target: Amyloid-beta precursor protein (Homo sapiens) (UniProt P05067); test: Inhibition of amyloid beta (25 to 35) (unknown origin) aggregation assessed as fluorescence intensity at 50 ug/ml incubated for 48 hrs by ThT-based fluorescence analysis (reference value: 26.85 +/-0.78 AU); conditions: dose 50.0 µg/ml
[16] = target: Amyloid-beta precursor protein (Homo sapiens) (UniProt P05067); test: Inhibition of amyloid beta (25 to 35) (unknown origin) aggregation assessed as fluorescence intensity at 50 ug/ml incubated for 96 hrs by ThT-based fluorescence analysis (reference value: 31.63 +/-0.68 AU); conditions: dose 50.0 µg/ml
[17] = target: Amyloid-beta precursor protein (Homo sapiens) (UniProt P05067); test: Inhibition of amyloid beta (25 to 35) (unknown origin) aggregation assessed as fluorescence intensity at 50 ug/ml incubated for 9 days by ThT-based fluorescence microscopic analysis (reference value: 36.84 +/-0.94 AU); conditions: dose 50.0 µg/ml, time 9.0 day
[18] = target: Amyloid-beta precursor protein (Homo sapiens) (UniProt P05067); test: Disaggregation of amyloid beta (25 to 35) (unknown origin) mature fibrils at 50 ug/ml incubated for 1 to 9 days by ThT-based fluorescence microscopic analysis; conditions: dose 50.0 µg/ml, time 1-9 day
[19] = system: N2a; test: Cytotoxicity against mouse Neuro2a cells upto 200 ug/ml incubated for 24 hrs by MTT assay; format: toxicity, cell-based; conditions: dose < 200 µg/ml
[20] = Cytotoxicity against mouse Neuro2a cells assessed as cell viability at 100 ug/ml incubated for 24 hrs by MTT assay; format: toxicity, cell-based; conditions: Neuro2a (N2a) cells, at 100 µg/mL, read-out: Activity
[21] = system: N2a; test: Neuroprotective activity against Amyloid beta (25 to 35)-induced toxicity in mouse Neuro2a cells assessed as reduction in cell viability loss at 25 to 100 ug/ml pretreated for 2 hrs followed by amyloid beta (25 to 35) addition and measured after 24 hrs by MTT assay; format: functional, cell-based; conditions: dose 25-100 µg/ml, time 26.0 hrs
[22] = system: N2a; test: Inhibition of Amyloid beta (25 to 35)-induced oxidative damage in mouse Neuro2a cells assessed as reduction in ROS production by measuring reduction in fluorescence intensity at 25 to 50 ug/ml pretreated for 2 hrs followed by amyloid beta (25 to 35) addition and measured after 24 hrs by DCFH-DA staining -based spectrofluorimetric assay; format: functional, cell-based; conditions: dose 25-50 µg/ml, time 26.0 hrs
[23] = system: N2a; test: Inhibition of Amyloid beta (25 to 35)-induced macromolecular damage in mouse Neuro2a cells assessed as reduction in lipid peroxidation by measuring MDA content at 25 ug/ml pretreated for 2 hrs followed by amyloid beta (25 to 35) addition and measured after 24 hrs per mg protein (reference value: 106.4 +/-1.9 nmol); format: functional; conditions: dose 25 µg/ml; time 26 hrs
[24] = system: N2a; test: Inhibition of Amyloid beta (25 to 35)-induced macromolecular damage in mouse Neuro2a cells assessed as reduction in lipid peroxidation by measuring MDA content at 50 ug/ml pretreated for 2 hrs followed by amyloid beta (25 to 35) addition and measured after 24 hrs per mg protein (reference value: 106.4 +/-1.9 nmol); format: functional; conditions: dose 50 µg/ml; time 26 hrs
[25] = system: N2a; test: Inhibition of Amyloid beta (25 to 35)-induced macromolecular damage in mouse Neuro2a cells assessed as reduction in protein oxidation by measuring protein carbonyl content at 25 ug/ml pretreated for 2 hrs followed by amyloid beta (25 to 35) addition and measured after 24 hrs per mg protein (reference value: 44.06 +/- 1.02 nmol); format: functional; conditions: dose 25 µg/ml; time 26 hrs
[26] = system: N2a; test: Inhibition of Amyloid beta (25 to 35)-induced macromolecular damage in mouse Neuro2a cells assessed as reduction in protein oxidation by measuring protein carbonyl content at 50 ug/ml pretreated for 2 hrs followed by amyloid beta (25 to 35) addition and measured after 24 hrs per mg protein (reference value: 44.06 +/- 1.02 […]); format: functional; conditions: dose 50 µg/ml; time 26 hrs
[27] = system: N2a; test: Inhibition of Amyloid beta (25 to 35)-induced mitochondrial membrane potential loss in mouse Neuro2a cells at 25 to 50 ug/ml pretreated for 2 hrs followed by amyloid beta (25 to 35) addition and measured after 24 hrs by rhodamine 123 staining based fluorescent spectrophotometry; format: functional, cell-based; conditions: dose 25-50 µg/ml, time 26.0 hrs
[28] = target: T1, Acetylcholinesterase (Mus musculus) (UniProt P21836); test: Inhibition of Amyloid beta (25 to 35)-induced AChE activity in mouse Neuro2a cells assessed as AChE activity at 25 ug/ml pretreated for 2 hrs followed by amyloid beta (25 to 35) addition and measured after 24 hrs per mg protein (reference value: 0.0012 +/-4.18 U); format: cell-based; conditions: dose 25.0 µg/ml, time 26.0 hrs
T1 sequence (whole entry): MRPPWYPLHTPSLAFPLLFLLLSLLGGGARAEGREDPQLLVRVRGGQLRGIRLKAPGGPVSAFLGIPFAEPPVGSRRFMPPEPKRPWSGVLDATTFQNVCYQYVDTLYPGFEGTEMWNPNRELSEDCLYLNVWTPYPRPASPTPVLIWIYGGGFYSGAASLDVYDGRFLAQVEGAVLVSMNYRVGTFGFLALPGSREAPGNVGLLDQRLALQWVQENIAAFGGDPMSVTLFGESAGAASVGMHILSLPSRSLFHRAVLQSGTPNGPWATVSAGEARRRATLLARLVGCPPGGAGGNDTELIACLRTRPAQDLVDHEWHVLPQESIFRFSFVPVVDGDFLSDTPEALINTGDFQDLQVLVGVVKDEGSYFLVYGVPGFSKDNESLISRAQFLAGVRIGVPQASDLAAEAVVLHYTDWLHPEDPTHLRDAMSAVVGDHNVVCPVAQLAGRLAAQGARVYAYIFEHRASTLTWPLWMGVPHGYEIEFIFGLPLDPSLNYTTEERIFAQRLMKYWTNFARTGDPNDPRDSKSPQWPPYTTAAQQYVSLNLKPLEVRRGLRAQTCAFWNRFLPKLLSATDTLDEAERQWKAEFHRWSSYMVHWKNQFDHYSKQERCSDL

[29] = target: T1, Acetylcholinesterase (Mus musculus); test: Inhibition of Amyloid beta (25 to 35)-induced AChE activity in mouse Neuro2a cells assessed as AChE activity at 50 ug/ml pretreated for 2 hrs followed by amyloid beta (25 to 35) addition and measured after 24 hrs per mg protein (reference value: 0.0012 +/-4.18 U); format: cell-based; conditions: dose 50.0 µg/ml, time 26.0 hrs
[30] = target: Cholinesterase (Mus musculus) (UniProt Q03311); test: Inhibition of Amyloid beta (25 to 35)-induced BuChE activity in mouse Neuro2a cells assessed as BuChE activity at 25 ug/ml pretreated for 2 hrs followed by amyloid beta (25 to 35) addition and measured after 24 hrs per mg protein (reference value: 0.0007 +/-3.64 U); format: cell-based; conditions: dose 25.0 µg/ml, time 26.0 hrs
Sequence of Cholinesterase (Mus musculus) (Q03311 whole entry): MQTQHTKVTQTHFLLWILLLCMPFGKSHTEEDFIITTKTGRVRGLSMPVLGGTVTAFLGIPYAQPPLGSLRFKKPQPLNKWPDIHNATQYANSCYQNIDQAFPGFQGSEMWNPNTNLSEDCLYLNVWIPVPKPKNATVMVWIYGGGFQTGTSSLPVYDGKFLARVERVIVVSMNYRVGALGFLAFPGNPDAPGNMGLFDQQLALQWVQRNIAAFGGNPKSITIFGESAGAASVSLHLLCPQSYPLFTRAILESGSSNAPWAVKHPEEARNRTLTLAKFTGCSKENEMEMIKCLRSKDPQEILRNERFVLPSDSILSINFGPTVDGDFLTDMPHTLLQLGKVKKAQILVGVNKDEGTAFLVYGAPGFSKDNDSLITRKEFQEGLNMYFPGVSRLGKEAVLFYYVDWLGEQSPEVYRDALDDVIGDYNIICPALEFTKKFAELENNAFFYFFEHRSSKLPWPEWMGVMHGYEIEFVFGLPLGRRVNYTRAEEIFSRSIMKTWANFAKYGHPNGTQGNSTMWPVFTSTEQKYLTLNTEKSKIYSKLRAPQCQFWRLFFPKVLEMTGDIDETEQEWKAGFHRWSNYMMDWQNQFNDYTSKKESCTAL

[31] = target: Cholinesterase (Mus musculus) (UniProt Q03311); test: Inhibition of Amyloid beta (25 to 35)-induced BuChE activity in mouse Neuro2a cells assessed as BuChE activity at 50 ug/ml pretreated for 2 hrs followed by amyloid beta (25 to 35) addition and measured after 24 hrs per mg protein (reference value: 0.0007 +/-3.64 U); format: cell-based; conditions: dose 50.0 µg/ml, time 26.0 hrs
[32] = system: N2a; test: Neuroprotective activity against Amyloid beta (25 to 35)-induced toxicity in mouse Neuro2a cells assessed as non-apoptotic viable cells at 25 ug/ml pretreated for 2 hrs followed by amyloid beta (25 to 35) addition and measured after 24 hrs by AO/EtBr dual staining based fluorescence microscopy (reference value: 53.4 +/-3.88%); format: functional; conditions: dose 25 µg/ml; time 26 hrs
[33] = system: N2a; test: Neuroprotective activity against Amyloid beta (25 to 35)-induced toxicity in mouse Neuro2a cells assessed as non-apoptotic viable cells at 50 ug/ml pretreated for 2 hrs followed by amyloid beta (25 to 35) addition and measured after 24 hrs by AO/EtBr dual staining based fluorescence microscopy (reference value: 53.4 +/-3.88%); format: functional; conditions: dose 50 µg/ml; time 26 hrs
[34] = system: N2a; test: Inhibition of Amyloid beta (25 to 35)-induced apoptosis in mouse Neuro2a cells assessed as reduction in caspase-3 activity by measuring PNA level at 25 ug/ml pretreated for 2 hrs followed by amyloid beta (25 to 35) addition and measured after 24 hrs per mg protein (reference value: 0.12 +/-0.004 mM/min); format: functional; conditions: dose 25 µg/ml; time 26 hrs
[35] = system: N2a; test: Inhibition of Amyloid beta (25 to 35)-induced apoptosis in mouse Neuro2a cells assessed as reduction in caspase-3 activity by measuring PNA level at 50 ug/ml pretreated for 2 hrs followed by amyloid beta (25 to 35) addition and measured after 24 hrs per mg protein (reference value: 0.12 +/-0.004 mM/min); format: functional; conditions: dose 50 µg/ml; time 26 hrs
[36] = system: N2a; test: Inhibition of Amyloid beta (25 to 35)-induced apoptosis in mouse Neuro2a cells assessed as increase in BCl2 expression at 50 ug/ml pretreated for 2 hrs followed by amyloid beta (25 to 35) addition and measured after 24 hrs by Western blot analysis; format: functional, cell-based; conditions: dose 50.0 µg/ml, time 26.0 hrs
[37] = system: N2a; test: Inhibition of Amyloid beta (25 to 35)-induced apoptosis in mouse Neuro2a cells assessed as decrease in Bax expression at 50 ug/ml pretreated for 2 hrs followed by amyloid beta (25 to 35) addition and measured after 24 hrs by Western blot analysis; format: functional, cell-based; conditions: dose 50.0 µg/ml, time 26.0 hrs
[38] = system: N2a; test: Inhibition of Amyloid beta (25 to 35)-induced apoptosis in mouse Neuro2a cells assessed as Bax/Bcl2 ratio at 50 ug/ml pretreated for 2 hrs followed by amyloid beta (25 to 35) addition and measured after 24 hrs by Western blot analysis (reference value: 1.09 +/- 0.018); format: functional; conditions: dose 50 µg/ml; time 26 hrs

## COc1ccc(/C=C/C(=O)c2c(O)cc(O[C@@H]3O[C@H](CO[C@@H]4O[C@@H](C)[C@H](O)[C@@H](O)[C@H]4O)[C@@H](O)[C@H](O)[C@H]3O)cc2OC)cc1O
[1]
  inhibition: > 80%
[2]
  inhibition: 93%
[3]
  inhibition: 68.4%
[4]
  mortality at 24 h, 5 ug/ml: 0%
[5]
  mortality at 24 h, 25 ug/ml: 0%
[6]
  mortality at 24 h, 50 ug/ml: 3.33%
[7]
  mortality at 24 h, 75 ug/ml: 36.6%
[8]
  mortality at 24 h, 100 ug/ml: 53.3%
[9]
  LC50: 100 µg/mL (≈ 160 µM)
[10]
  Activity: Toxic
[11]
  Activity: Toxic
[12]
  Activity: Toxic
[13]
  Activity: Toxic
[14]
  Flu intensity: 19.8 a.u.
[15]
  Flu intensity: 6.45 a.u.
[16]
  Flu intensity: 10 a.u.
[17]
  Flu intensity: 11.8 a.u.
[18]
  Activity: Active
[19]
  Activity: Non-Toxic
[20]
  viability at 24 h, 100 ug/ml: 99.6%
[21]
  Activity: Active
[22]
  inhibition: Active
[23]
  Activity: 77.84 nmol
[24]
  Activity: 64.63 nmol
[25]
  Activity: 33.9 nmol/mg
[26]
  Activity: 27.9 nmol/mg
[27]
  inhibition: Active
[28]
  Activity: 0 U
[29]
  Activity: 0 U
[30]
  Activity: 0 U
[31]
  Activity: 0 U
[32]
  Activity: 70.33%
[33]
  Activity: 81.66%
[34]
  Activity: 0.07 mM/min
[35]
  Activity: 0.03 mM/min
[36]
  inhibition: Active
[37]
  inhibition: Active
[38]
  Ratio: 0.51
